# Experimental data taken from US8476271B2 (priority 2008, dated 2013).
# Structures can show the parent of a compound that is named as a salt.
# Columns and labels:
# [1] = tested on: FCA-induced thermal hyperalgesia; assay: FCA model of inflammatory pain, thermal hyperalgesia (PWL, plantar test); type: in vivo; conditions: rat
# Procedure: (§1) Each experiment used rats weighing between 200-260 g at the start of the experiment. The rats were group-housed and had free access to food and water at all times, except prior to oral administration of a Substituted-Quinoxaline-Type Bridged-Piperidine Compound when food was removed for 16 hours before dosing. A control group acted as a comparison to rats treated with a Substituted-Quinoxaline-Type Bridged-Piperidine Compound. The control group was administered the carrier for the Substituted-Quinoxaline-Type Bridged-Piperidine Compound. The volume of carrier administered to the control group was the same as the volume of carrier and Substituted-Quinoxaline-Type Bridged-Piperidine Compound administered to the test group.
# To assess the actions of a Substituted-Quinoxaline-Type Bridged-Piperidine Compound for the treatment or prevention of inflammatory pain, the Freund's complete adjuvant (“FCA”) model of inflammatory pain was used. […] The left hind paw of each animal was administered a 50 μL intraplantar injection of 50% FCA. 24 hour post injection, the animal was assessed for response to noxious mechanical stimuli by determining the PWT, or to noxious thermal stimuli by determining the PWL, as described below. […] Responses to noxious mechanical stimuli were then determined 1, 3, 5 and 24 hours post administration. Percentage reversal of hyperalgesia for each animal was defined as: […]
# The plantar test can be used to assess thermal hyperalgesia. For this test, hind paw withdrawal latencies (PWL) to a noxious thermal stimulus were determined using a plantar test apparatus (commercially available from Ugo Basile of Italy) following the technique described by K. Hargreaves et al., “A New and Sensitive Method for Measuring Thermal Nociception in Cutaneous Hyperalgesia,” Pain 32(1):77-88 (1988). The maximum exposure time was set at 32 seconds to avoid tissue damage and any directed paw withdrawal from the heat source was taken as the end point. Three latencies were determined at each time point and averaged. Either only the affected (ipsilateral) paw was tested, or both the ipsilateral and contralateral (non-injured) paw were tested.
# [2] = abnormal behavioral side effects (sedation, hyperactivity, hypoactivity); conditions: rat, in vivo
# [3] = tested on: nerve injury-induced mechanical hyperalgesia; assay: Seltzer partial sciatic nerve ligation model of neuropathic pain, mechanical hyperalgesia (PWT); type: in vivo; conditions: rat, 3 mg/kg
# Procedure: as §1
# Partial ligation of the left sciatic nerve was performed under isoflurane/O2 inhalation anesthesia. Following induction of anesthesia, the left thigh of the rat was shaved and the sciatic nerve exposed at high thigh level through a small incision and was carefully cleared of surrounding connective tissues at a site near the trocanther just distal to the point at which the posterior biceps semitendinosus nerve branches off of the common sciatic nerve. A 7-0 silk suture was inserted into the nerve with a ⅜ curved, reversed-cutting mini-needle and tightly ligated so that the dorsal ⅓ to ½ of the nerve thickness was held within the ligature. The wound was closed with a single muscle suture (4-0 nylon (Vicryl)) and vetbond tissue glue. Following surgery, the wound area was dusted with antibiotic powder. Sham-treated rats underwent an identical surgical procedure except that the sciatic nerve was not manipulated. Following surgery, animals were weighed and placed on a warm pad until they recovered from anesthesia. Animals were then returned to their home cages until behavioral testing began. The animals were assessed for response to noxious mechanical stimuli by determining PWT, as described below, prior to surgery (baseline), then immediately prior to and 1, 3, and 5 hours after drug administration for rear paw of the animal. Percentage reversal of neuropathic hyperalgesia was defined as: […]
# The paw pressure assay was used to assess mechanical hyperalgesia. For this assay, hind paw withdrawal thresholds (PWT) to a noxious mechanical stimulus were determined using an analgesymeter (Model 7200, commercially available from Ugo Basile of Italy) as described in C. […] The maximum weight that could be applied to the hind paw was set at 250 g and the end point is taken was complete withdrawal of the paw. PWT was determined once for each rat at each time point and either only the affected (ipsilateral) paw was tested, or both the ipsilateral and contralateral (non-injured) paw were tested.
# [4] = molecular target: hERG (human ether a-go-go gene) (Homo sapiens (Human), UniProt Q12809); assay: cardiovascular side effects: in vitro hERG assay and APD in guinea pig purkinje fibers
# Procedure: These side effects were determined using known methods: an in vitro hERG (human ether a-go-go gene) assay as disclosed in Z. Zhou et al., “Properties of HERG Channels Stably Expressed in HEK 293 Cells Studied at Physiological Temperature,” Biophysical J. 74:230-241 (1998); and APD (action potential duration) in guinea pig purkinje fibers as disclosed in J. A. Hey, “The Guinea Pig Model for Assessing Cardiotoxic Proclivities of Second Generation Antihistamines,” Arzneimittelforschung 46(8):834-837 (1996).
# [5] = 5 mg/kg dose, 1 hour after administration
# [6] = 5 mg/kg dose, 3 hours after administration
# [7] = 5 mg/kg dose, 5 hours after administration
Structure (SMILES),"% reversal of thermal hyperalgesia [1, 5] [%]","% reversal of thermal hyperalgesia [1, 6] [%]","% reversal of thermal hyperalgesia [1, 7] [%]","abnormal behavioral side effects, such as sedation, hyperactivity and/or hypoactivity [2]","% reversal of thermal hyperalgesia ([1]; 3 mg/kg dose, 1 hour after administration) [%]","% reversal of thermal hyperalgesia ([1]; 3 mg/kg dose, 3 hours after administration) [%]","% reversal of thermal hyperalgesia ([1]; 3 mg/kg dose, 5 hours after administration) [%]",ED50 for reversal of thermal hyperalgesia ([1]; 1 hour after administration) [mg/kg],ED50 for reversal of thermal hyperalgesia ([1]; 3 hours after administration) [mg/kg],ED50 for reversal of thermal hyperalgesia ([1]; 5 hours after administration) [mg/kg],% reversal of mechanical hyperalgesia ([3]; 1 hour after administration) [%],% reversal of mechanical hyperalgesia ([3]; 3 hours after administration) [%],% reversal of mechanical hyperalgesia ([3]; 5 hours after administration) [%],% reversal of mechanical hyperalgesia ([3]; 7 hours after administration) [%],cardiovascular side effects [4]
"O=C(O)c1nc2ccccc2n([C@H]2C[C@H]3CC[C@@H](C2)N3C2CCCCCCCCCC2)c1=O [Compound 358, 4-((endo)-8-cycloundecyl-8-azabicyclo[3.2.1]octan-3-yl)-3-oxo-3,4-dihydroquinoxaline-2-carboxylic acid]",34,46,79,reduced abnormal behavioral side effects,–,–,–,–,–,–,–,–,–,–,–
"O=C(O)c1nc2ccccc2n([C@H]2C[C@H]3CC[C@@H](C2)N3[C@H]2C[C@@H]3CCC[C@@H](C3)C2)c1=O [Compound 361, 4-((endo)-8-((exo)-bicyclo[3.3.1]nonan-3-yl)-8-azabicyclo[3.2.1]octan-3-yl)-3-oxo-3,4-dihydroquinoxaline-2-carboxylic acid]",36,90,70,reduced abnormal behavioral side effects,–,–,–,–,–,–,–,–,–,–,–
"O=C(O)c1nc2ccccc2n([C@H]2C[C@H]3CCC[C@@H](C2)N3C2CC3CCCC(C3)C2)c1=O (stereo partly drawn) [Compound 362, 4-((endo)-9-((exo)-bicyclo[3.3.1]nonan-3-yl)-9-azabicyclo[3.3.1]nonan-3-yl)-3-oxo-3,4-dihydroquinoxaline-2-carboxylic acid]",–,–,–,reduced abnormal behavioral side effects,86,51,27,0.8,1.5,3.0,60,60,50,40,reduced cardiovascular side effects
"C[C@@H]1C[C@@H]2C[C@H](C1)C[C@@H](N1[C@@H]3CCC[C@H]1C[C@@H](n1c(=O)c(C(=O)O)nc4ccccc41)C3)C2 [Compound 405, (exo, endo, endo)-4-(9-(7-methylbicyclo[3.3.1]nonan-3-yl)-9-azabicyclo[3.3.1]nonan-3-yl)-3-oxo-3,4-dihydroquinoxaline-2-carboxylic acid potassium salt]",–,–,–,–,–,–,–,–,–,–,70,70,70,–,–
